Measurements taken from PMC11574108, “4-Furanylvinylquinoline derivative as a new scaffold for the design of oxidative stress initiator and glucose transporter inhibitor drugs” (Scientific Reports, 2024).

Key:
tested cancer lines = experiment: Antiproliferative MTS assay, summary over the panel; assay type: cell-based; settings: Homo sapiens; against most of the tested cancer lines
Procedure: The cells were seeded in 96-well plates (Nunc) with 5,000 or 4,000 cells per well for the cancer cells and NHDF, respectively, and incubated under standard conditions at 37 °C overnight. The culture media were then changed for freshly prepared solutions of the tested compounds in various concentrations. After 72-h incubation the antiproliferative assay was carried out as follows: the solutions of the compounds were changed in each well to 100 µL DMEM without phenol red and 20 µL of CellTiter 96 AQueous One Solution-MTS (Promega). The plates were incubated for 1 h at 37 °C, and the absorbance was then measured at 490 nm using a multi-plate reader (Synergy 4, BioTek). The experiment for each sample was repeated at least three times. The results are presented as the half-maximal inhibitory concentration (IC50) values, which were estimated in comparison to untreated cells (control) and calculated using GraphPad Prism v.8.0 (USA).
However, the antiproliferative activity of derivative 13 with furan a ring was surprising. […] For this purpose, we selected two pancreatic cancer cell lines: AsPC-1, which is characterised by a deletion of the p53 protein[20] and PANC-1, which carries an R273H mutation. […] In light of the above-mentioned facts, we also determined the cytotoxicity of the GLUT inhibitor BAY-876, which is based on a quinoline scaffold. […]

HO-1 = experiment: Western blot, HO-1 protein level; assay type: cell-based, human; settings: 24 h
Procedure: The cells (500,000) were seeded in 35 mm Petri dishes (Nunc) and incubated in a solution of the tested compound (0.5 µM and 1 µM) for 24 h and 48 h. The cells were then dissociated using trypsin, collected in Eppendorf tubes, and centrifuged at 2,000 rpm. Next, cell pellets were resuspended in complete RIPA buffer containing a Halt Protease Inhibitor Cocktail and Halt Phosphatase Inhibitor Cocktail along with 0.5 M EDTA (all reagents from Thermo Fisher Scientific) and lysed on ice for 20 min. Afterward, the lysates were sonicated and centrifuged at 10,000 rpm for 10 min at 4 °C. The obtained supernatants were collected for further analysis. The protein concentration was determined using a Micro BCA™ Protein Assay Kit (Thermo Fisher Scientific) according to the manufacturer’s procedure. Equal amounts of proteins (16 µg) were electrophoresed on SDS-Page gels and transferred onto nitrocellulose membranes. Novex Sharp Pre-Stained Protein Standard (Thermo Fisher Scientific) was used as a colored molecular weight marker. The membranes were blocked in 5% non-fat milk prepared in TPBS (PBS supplemented by 0.1% Tween-20) for 1 h. After blocking, the membranes were cut, and then incubated with specific primary monoclonal antibodies (all purchased from Cell Signaling) overnight at 4 °C. The antibodies for the target proteins (CDK1 Mouse mAb #9116, p53 Mouse mAb #2524, FAS Mouse mAb #8023, GLUT-1 Rabbit mAb #12939, HO-1 Rabbit mAb #5853, p21^Waf1/Cip1 Rabbit mAb #2947, PARP #9542) were diluted 1:1000, while the antibodies for the reference proteins (GAPDH Rabbit mAb #2118, β-actin Mouse mAb #3700, and vinculin Rabbit mAb #13901) were diluted 1:2000. The following day, the membranes were washed in TPBS and incubated with horseradish peroxidase (HRP)-conjugated secondary antibodies (Anti-rabbit IgG, HRP-linked Antibody #7074 or Anti-mouse IgG, HRP-linked Antibody #7076) for 1 h at room temperature. The membranes were then washed in TPBS and incubated with a SuperSignal™ West Pico Chemiluminescent Substrate (Thermo Fisher Scientific). […]

U-251 = experiment: Cell cycle assay (flow cytometry); assay type: cell-based, human; settings: 2xIC50, 24-h treatment; control 20.44%
Procedure: (§1) The cells were seeded in 35 mm Petri dishes, 200,000 cells per dish, and incubated overnight under standard conditions at 37 °C. […] After a 24-h incubation, the experiment was carried out using a Muse™ Cell Cycle Kit (Millipore) according to the available procedure. Briefly, the cells were detached and collected in Eppendorf tubes. The samples were then washed with cold phosphate-buffered saline (PBS), centrifuged at 300 g (5 min), and fixed in ice-cold 70% ethanol. The cells were stored at -20 °C overnight. The next day, the samples were sequentially washed with cold PBS, centrifuged resuspended in 200 µL of Muse™ Cell Cycle Reagent, and incubated in the dark for 30 min at room temperature. The percentage of cells in specified cell cycle phases was estimated using a Muse™ Cell Analyzer (Millipore). The experiments were carried out three times.
(§2) When analysing the antiproliferative activity of the tested compounds, we decided to determine the molecular mechanism of action of the most promising derivative 13 in three cell lines with different statuses of p53, for which the derivative has the highest activity. In order to achieve this goal, we started by studying the changes in the cell cycle in order to determine why proliferation stops. To evaluate the effect of derivative 13 on the cell cycle progression, we used flow cytometry. After a 24-h treatment, we observed a significant inhibition in the G2/M phase in both HCT 116 cell lines (Fig. 4A).

HCT 116 p53+/+ = experiment: Cell cycle assay (flow cytometry); assay type: cell-based, human; settings: 2xIC50, 24-h treatment; control 30.81%
Procedure: as §1, §2

HCT 116 p53-/- = experiment: Cell cycle assay (flow cytometry); assay type: cell-based, human; settings: 2xIC50, 24-h treatment; control 34.35%
Procedure: as §1, §2

Structure (SMILES): O=[N+]([O-])c1ccc(/C=C/c2ccnc3ccccc23)o1 [Compound 13]
- IC50 (tested cancer lines): < 0.1 µM
- HO-1 protein level vs control (HO-1; HCT 116 p53+/+, 1 µM): more than twelve-fold
- HO-1 protein level vs control (HO-1; HCT 116 p53-/-, 1 µM): six-fold
- HO-1 protein level vs control (HO-1; U-251, 1 µM): four-fold
- percentage of cells in S phase (U-251): 35.59%
- population of cells in G2/M phase (HCT 116 p53+/+): 49.78%
- population of cells in G2/M phase (HCT 116 p53-/-): 44.95%
